# Experimental data from patent publication US11345659B2, “Pipecolic esters for inhibition of the proteasome” (THE BOARD OF REGENTS OF THE UNIVERSY OF TEXAS SYSTEM, priority 2018, dated 2022).
# Tests used:
# immunoproteasomes = immunoproteasomes (Homo sapiens, UniProt P25787+P25789); experiment: Activity of housekeeping and immunoproteasomes activated with Rpt5-derived peptide; assay type: biochemical
# Text: Immuno and housekeeping forms are serving distinct physiological functions. The clinically used competitive inhibitors do target them with a similar efficacy; however such outcome is not obvious with allosteric inhibitors such as compound 3. Referring to FIG. 11, the relative activities of the proteasome forms are shown, activated with the Rpt5-derived peptide and treated with compound 3.
# [1] = target: T1, latent core 20 S proteasome (Homo sapiens, UniProt P25787+P25789); experiment: Competition of compound 3 with tRpt6 peptide, ChT-L activity of latent core; assay type: biochemical; conditions: 1 μM compound 3, 2 μM tRpt6
# T1 construct: purified from erythrocytes; purchased Enzo Life Sciences, Inc. (Farmingdale, N.Y.); host or cells: human erythrocytes
# Text: According to the most recent model of the 26 S proteasome dynamic cycle, Rpt6 succeeds the Hb-Y—X containing anchor subunits Rpt5, Rpt3, and Rpt2 in docking into the α face pockets and promoting an intermediate conformation between latent and activated (open gate) proteasomes (Dong et al. ([…]) Nature 565(7737): 49-55). […] For comparison, no competition between tRpt5, expected to occupy the α5/α6 pocket, and compound 3 was detected.
# Referring to FIG. 4, the C-terminal peptide derived from Rpt6 subunit compromises inhibition of the ChT-L activity of the latent core by the compound 3; however, only when added to the proteasome prior to the inhibitor. […] 1 μM compound 3 and 2 μM tRpt6 were tested. Mean±SD; n=3 to 6.
# [2] = target: T1, latent core 20 S proteasome; experiment: PGPH peptidase activity of latent 20 S core; assay type: biochemical
# [3] = system: human prostate cancer PC3 cells; experiment: Efficacy study in nude mice xenografted with PC3 cells; assay type: in vivo; conditions: 10 mg/kg intra-tumorally
# Description: The efficacy study was performed with mice xenografted with human cultured androgen-resistant prostate cancer PC3 cells. To assure efficient monitoring of tumor growth and dissemination, the cells expressing green fluorescent protein (GFP) and luciferine were used for xenografting (Bioware Brite PC3-RedFLuc-GFP). The study involved […] nude mice. Tumor-growing mice were treated intra-tumorally (IT) with the vehicle (dimethylsulfoxide; DMSO; 8 control mice) or with 10 mg/kg of compound 3 (10 mice). Injections were carried on Mondays, Wednesdays, and Fridays. To assure accurate assessment of the tumor size, at the time of first and last treatments the mice were injected with luciferine (substrate for luciferase) and the total intensity of fluorescent product was recorded by the Xenogen IVIS Spectrum small animal imager. […] The color scale from blue (lowest) through green, yellow and red (highest) corresponds to the intensity of fluorescence emitted from the tumor and thus represents the total mass of live cancer cells. Referring to FIG. 8 right panel, median ratios of last-to-first total tumor fluorescence values are shown. Apparently, the median tumor size in controls increased nearly three-fold (ratio=3.05), whereas in the treated cohort a tumor shrinkage was recorded instead (ratio=0.62).
# [4] = target: T1, latent core 20 S proteasome; experiment: T-L peptidase activity of latent 20 S core; assay type: biochemical
# FKBP12 = target: T2, FKBP12 (Homo sapiens, UniProt P62942); experiment: Suppression of rapamycin inhibition of S6 phosphorylation by competing for FKBP12; assay type: cell-based; conditions: RPMI 8226, 24 hours; FK506 10 μM, compound 3 and B1 0.2 μM, with rapamycin
# T2 construct: endogenous in cells; host or cells: RPMI 8226 (ATCC)
# T2 sequence (P62942 whole entry): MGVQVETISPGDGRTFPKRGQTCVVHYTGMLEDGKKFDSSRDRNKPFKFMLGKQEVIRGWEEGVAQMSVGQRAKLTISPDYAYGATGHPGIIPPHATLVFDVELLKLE
# Description: Human multiple myeloma RPMI 8226 cells were purchased from American Type Culture Collection (ATCC; Manassas, Va.) and cultured according to ATCC specifications. […] The content of live cells was determined by excluding the Trypan Blue-stained cells. The cells were counted with TC20 Automated Cell Counter (Bio-Rad Laboratories, Hercules, Calif.) and EC50 was calculated with Origin Pro 2017 (OriginLab Corporation, Northampton, Mass.). When indicated, the cells were harvested, washed twice in PBS, resuspended in dilution buffer and stored in −80° C. To prepare crude lysates the thawed preparations were vortexed with glass beads and centrifuged for 5 min 5,000×g (4° C.). The supernate was centrifuged for 20 min 14,000×g. The resulting supernate was used as “crude lysate.” SDS-PAGE was carried in 12% acrylamide, Tris-glycine gels from Invitrogen. Chameleon Duo (Li-Cor) and Rainbow RPN800E (GE Healthcare) molecular weight standards were separated on each gel alongside lysates. The proteins were transferred to nitrocellulose membrane in a semi-dry system. The membranes were probed with specific primary antibodies from Life Technologies (S6, PS6) and Li-Cor (COX IV), and then with secondary antibodies from Li-Cor. In each experiment visualization of S6, PS6 and COX IV was performed on the same membrane with Odyssey Infrared Imaging System (Li-Cor). […]
structure (smiles),measurement,setting,value
"COc1cc(CCCOC(=O)[C@@H]2CCCCN2C(=O)OCc2ccccc2)cc(OC)c1OC [Compound 3, 1-benzyl 2-(3-(3,4,5-trimethoxyphenyl)propyl) (S)-piperidine-1,2-dicarboxylate]",inhibition of housekeeping versus immunoproteasomes,immunoproteasomes,inhibits both housekeeping and immunoproteasomes with similar efficacy
same,inhibition of ChT-L of the core when tRpt6 is added before the compound,[1],significantly attenuated inhibition of the core
same,inhibition of the core when the compound is preincubated before addition of tRpt6,[1],No attenuation was observed
same,IC50,[2],> 50 µM
same,remaining activity at 10 µM,"[2]; 10 μM compound, n=5, read-out: PGPH activity, % of control",99%
same,remaining activity at 50 µM,"[2]; 50 μM compound, n=3, read-out: PGPH activity, % of control",71%
same,growth of xenografted tumor,[3],attenuated the growth of xenografted tumor
same,median ratio of last-to-first total tumor fluorescence,"[3]; Mon/Wed/Fri, control ratio 3.05",0.62
same,IC50,[4],> 50 µM
same,remaining activity at 1 µM,"[4]; 1 μM compound, n=3, read-out: T-L activity, % of the control",77%
same,remaining activity at 50 µM,"[4]; 50 μM compound, n=4, read-out: T-L activity, % of the control",64%
same,suppression of rapamycin inhibition of S6 phosphorylation (FKBP12 binding),FKBP12,did not mimic the actions of FK506
